Measurements: patent US7943309B2, “HLA alleles associated with adverse drug reactions and methods for detecting such” (Pharmigene Inc., priority 2006, dated 2011)
Where “and” joins values, the source holds several entries; their conditions need not be identical. Equal entries are not always repeated.

Experiments:
HLA-B*1502 = assay: Association of HLA-B*1502 with drug-induced SJS/TEN (HLA genotyping, case-control); parameters: species or system human; conditions: for number of HLA-B*1502-positive SJS/TEN patients who received the drug: among 17 carriers of 53 SJS/TEN patients who received other drugs
Method: 73 tegretol-tolerant patients were included as controls. […] All of these patients were subjected to genotyping. […] SSO (DYNAL Biotech Ltd.; Bromborough, UK). […] Marcel G. J. […] To some patients, SNP genotyping was performed using high throughput MALDI-TOF mass spectrometry. Briefly, primers and probes were designed using the Spectro[…] software (Sequenom, San Diego, Calif., USA). Multiplex polymerase chain reactions (PCR) were performed, the unincorporated dNTPs were dephosphorylated using the shrimp alkaline phosphatase (Hoffman-LaRoche, Basel, Switzerland), followed by primer extension. The purified primer extension reaction was spotted onto a 384-element silicon chip (SpectroCHIP, Sequenom), analyzed using a Bruker Biflex III MALDI-TOF SpectroREADER mass spectrometer (Sequenom) and spectra processed with […] (Sequenom).

HLA-B*4601 = assay: Association of HLA-B*4601 with CBZ-induced milder cutaneous ADRs (HLA genotyping); parameters: species or system human
Text: 73 tegretol-tolerant patients were included as controls. Volunteers from the general population of Taiwanese (n=94; age range: 20 to 80 years) were also recruited.
All of these patients were subjected to genotyping.
In contrast, the allele was only found in 26% (19/73) of the CBZ-tolerant group.

HLA-Cw*0801 = assay: Marker of B*1502 ancestral haplotype and ADRs: HLA-Cw*0801
Text: (§1) All of these patients were subjected to genotyping. Briefly, reagents for performing a reverse line blot assay using sequence-specific oligonucleotide (SSO) were purchased from DYNAL Biotech Ltd. (Bromborough, UK). PCR products were generated using biotinylated primers for the second and the third exons of the HLA class I or class II loci, and then hybridized to a line blot of SSO of probes immobilized on a nylon membrane. The presence of biotinylated PCR product bound to a specific probe is detected using streptavidin-horseradish peroxidase (HRP) and a chromogenic, soluble substrate to produce a blue “line” at the position of the positive probe. The probe reactivity pattern was interpreted by the genotyping software Dynal RELI™ SSO (DYNAL Biotech Ltd.; Bromborough, UK). Potential ambiguities were further resolved by sequence-based typing and DNA sequencing performed according to the IHWG Technical Manual (International Histocompatibility Working Group), see Genomic Analysis of the Human MHC DNABased Typing for HLA Alleles and Linked Polymorphisms. Marcel G. J. Tilanus, Editor in Chief, ISBN No. 0-945278-02-0.

HLA-Cw*0806 = assay: Marker of B*1502 ancestral haplotype and ADRs: HLA-Cw*0806
Text: as §1

HLA-A*1101 = test system: HLA-A*1101
Text: as §1

HLA-DRB1*1202 = test system: HLA-DRB1*1202
Text: as §1

[1] = Clinical phenotype of drug-induced cutaneous ADR in individual patients; assay type: in vivo, human
Method: A total of 238 ADR patients (Mongoloids or Mongoloid descendents) were recruited either from Chang Gung Memorial Hospital or from several other medical centers throughout Taiwan for this study. Their drug-taking history including dosage and duration, and the phenotypes of ADRs were recorded. The diagnostic criteria of clinical morphology were defined according to Roujeau, J. Invest Dermatol., 102(6):28S-30S, 1994. […] SJS, overlap SJS-TEN and TEN are collectively referred to as SJS/TEN.

[2] = Onset of allopurinol-induced ADR symptoms; assay type: in vivo, human
Cw*0302 = conditions: number (%)
A*3303 = conditions: number (%)
DRB1*0301 = conditions: number (%)
HLA-B*5801 = assay: Association of HLA-B*5801 with allopurinol-induced severe ADRs (HSS, SJS, TEN); conditions: for B*5801 frequency, Allopurinol-tolerant: n = 98
CBZ-reactive T cells = assay: Cross-reactivity of CBZ-reactive T cells (interferon-γ ELISPOT); assay type: cell-based, human; conditions: T cells of HLA-B*1502 patients with CBZ-induced SJS/TEN, autologous B cells, 24 hours
Text: Two patients having CBZ-induced SJS/TEN were recruited from Chang Gung Memorial Hospital. […] Genomic DNAs were extracted from the patients using […] DNA purification system (Gentra systems, Minnesota, USA). The HLA-B alleles were verified using sequence-specific oligonucleotide reverse line blots (DYNAL Biotech Ltd., Bromborough, U.K.).
Peripheral blood mononuclear cells (PBMCs) were isolated from the patients by Ficoll-Isopaque (Pharmacia Fine Chemicals, Piscataway, N.J.) density gradient centrifugation. A portion of the PBMCs were transformed by Epstein-Bar virus to establish autologous B-cell lines.
T cells reactive to CBZ were expanded as described below. PBMCs prepared from the patients were cultured in complete RPMI medium containing 10% heat-inactivated human serum, IL-2 (25 U/ml), and CBZ (25 μg/ml)(Sigma) in a 37° C., 5% CO2 incubator for 7 days. The T cells were then expanded by co-culturing with irradiated (50Gy) autologous B cells in the presence of CBZ for 10 days. After 2 cycles of the above co-culturing procedure, the CBZ-activated T cells were collected and subjected to ELISPOT assays (eBioscience).
The CBZ-reactive T cells were tested for their cross-reactivity to compounds e.g., CBZ 10, 11-epoxide, Oxcarbazepine (brand name: trileptal), Licarbazepine, and sunlindac. Briefly, T lymphocytes (5×10^3 cells) were mixed with autologous B cells (5×10^4 cells) in 200 μl RPMI medium containing 10% FBS in the presence or absence of a test compound. The cells were then incubated for 24 hours in the wells of an ELISPOT plate coated with anti-interferon γ antibodies (Millipore). After incubation, the supernatant of the cell culture was collected and interferon-γ contained therein was detected using antibody-mediated methods known in the art.

[3] = relative to the allopurinol-tolerant group

CC1(C)S[C@@H]2[C@H](NC(=O)[C@H](N)c3ccc(O)cc3)C(=O)N2[C@H]1C(=O)O [amoxicillin]
number of HLA-B*1502-positive SJS/TEN patients who received the drug (HLA-B*1502): 2

carbamazepine [CBZ]
HLA-B*1502 frequency, CBZ-tolerant patients (HLA-B*1502; N = 73, carriers, number (%)): 3 (4.1%)
HLA-B*1502 frequency, patients with CBZ-induced SJS/TEN (HLA-B*1502; Taiwanese patients, N = 42, carriers, number (%)): 42 (100%)
HLA-B*1502 frequency, CBZ Milder ADRs (HLA-B*1502; n = 16, carriers, number (%)): 0 (0%)
HLA-B*1502 carriers among SJS/TEN patients who received the drug (HLA-B*1502; text of Example 3): 100%
HLA-B*1502 carriers in the drug-tolerant group (HLA-B*1502; text of Example 3): 4.1%
negative predictive value of B*1502 for CBZ-induced SJS/TEN (HLA-B*1502; tolerant group as control): 100%
positive predictive value of B*1502 for CBZ-induced SJS/TEN (HLA-B*1502; tolerant group as control): 96.0%
sensitivity of B*1502 for CBZ-induced SJS/TEN (HLA-B*1502; tolerant group as control): 100%
specificity of B*1502 for CBZ-induced SJS/TEN (HLA-B*1502; tolerant group as control): 95.89%
Odds Ratio, B*1502, CBZ-induced SJS/TEN (HLA-B*1502; vs Controls1: patients who had milder ADRs other than SJS, N = 142): 1194.47
Odds Ratio, B*1502, CBZ-induced SJS/TEN (HLA-B*1502; vs Controls2: general Taiwanese population, N = 94): 1383.2
Odds Ratio, B*1502, CBZ-induced SJS/TEN (HLA-B*1502; vs Controls3: CBZ-tolerant patients, N = 73): 1712
HLA-B*4601 carriers among patients with milder reactions to CBZ (HLA-B*4601; 10 out of 16): 62.5%
HLA-B*4601 carriers in the CBZ-tolerant group (HLA-B*4601; 19/73): 26%
odds ratio, B*4601, CBZ-induced milder cutaneous ADRs (HLA-B*4601; vs CBZ-tolerant group): 4.73
HLA-Cw*0801 frequency, CBZ SJS/TEN (HLA-Cw*0801): 38 (90%)
HLA-Cw*0801 frequency, CBZ Tolerant (HLA-Cw*0801): 10 (13.7%)
HLA-Cw*0806 frequency, CBZ SJS/TEN (HLA-Cw*0806): 3 (7.1%)
HLA-Cw*0806 frequency, CBZ Tolerant (HLA-Cw*0806): 0 (0%)
HLA-A*1101 frequency, CBZ SJS/TEN (HLA-A*1101): 31 (73.8%)
HLA-DRB1*1202 frequency, CBZ SJS/TEN (HLA-DRB1*1202): 35 (83.3%)
Phenotype ([1]; human, in vivo): SJS

Oc1ncnc2[nH]ncc12 [allopurinol, Allopurinol]
number of HLA-B*1502-positive SJS/TEN patients who received the drug (HLA-B*1502): 2
HLA-B*1502 frequency, Allopurinol SJS/TEN (HLA-B*1502; n = 17, carriers, number (%)): 1 (5.8%)
HLA-Cw*0801 frequency, Allopurinol SJS/TEN (HLA-Cw*0801; n = 17, number (%)): 2 (11.7%)
HLA-Cw*0806 frequency, Allopurinol SJS/TEN (HLA-Cw*0806; n = 17, number (%)): 0 (0%)
Phenotype ([1]; individual patient, cutaneous ADR to the suspected drug): SJS (11×) and SJS and vasculitis on leg and SJS, and lichenoid and TEN
Phenotype ([1]; individual patient, cutaneous ADR to the suspected drug, listed as Allopurinol): SJS
Phenotype ([1]; individual patient, cutaneous ADR to the suspected drug, listed as alloprinol): SJS
second attack after re-exposure to allopurinol ([2]; 2 patients): ≤ 2 days
onset of HSS symptoms after start of allopurinol exposure ([2]; all of the 31 patients): ≤ 2 months
Cw*0302 frequency, Allopurinol-ADRs (Cw*0302; n = 31): 29 (93.5%)
Cw*0302 frequency, Allopurinol-tolerant (Cw*0302; n = 98): 15 (15.3%)
A*3303 frequency, Allopurinol-ADRs (A*3303; n = 31): 20 (64.5%)
A*3303 frequency, Allopurinol-tolerant (A*3303; n = 98): 18 (18.4%)
DRB1*0301 frequency, Allopurinol-ADRs (DRB1*0301; n = 31): 21 (67.7%)
DRB1*0301 frequency, Allopurinol-tolerant (DRB1*0301; n = 98): 14 (14.3%)
sensitivity of HLA-B*5801 for allopurinol-induced severe ADRs (HLA-B*5801): 100%
specificity of HLA-B*5801 for allopurinol-induced severe ADRs (HLA-B*5801): 84%
Odds ratio (Allopurinol-ADRs/Normal), B*5801 (HLA-B*5801; 31 ADR patients vs 93 normal subjects): 241
Odds ratio (Allopurinol-ADRs/Tolerant), B*5801 (HLA-B*5801; 31 ADR patients vs 98 tolerant patients): 315
B*5801 frequency, Allopurinol-ADRs (severe ADRs) (HLA-B*5801; n = 31, carriers, number (%)): 31 (100%)
B*5801 frequency, Allopurinol-tolerant (HLA-B*5801; carriers, number (%)): 16 (16.3%)
B*5801 frequency, Allopurinol-tolerant (HLA-B*5801; carriers, number (%), listed as Allopurinol): 16 (16.3%)^1
negative predictive value, absence of HLA-B*5801, allopurinol-induced ADRs (HLA-B*5801; [3]): 100%
positive predictive value, presence of HLA-B*5801, allopurinol-induced ADRs (HLA-B*5801; [3]): 66%

(S)-(−)-10-acetoxy-10,11- dihydro-5H-dibenzo/b,f/ azepine-5-carboxamide [Licarbazepine]
cross-reactivity of CBZ-reactive T cells to the compound (CBZ-reactive T cells): cross-reactive

NC(=O)N1c2ccccc2C2OC2c2ccccc21 (stereo not drawn) [CBZ 10, 11-epoxide]
cross-reactivity of CBZ-reactive T cells to the compound (CBZ-reactive T cells): cross-reactive

CC1=C(CC(=O)O)c2cc(F)ccc2/C1=C\c1ccc([S+](C)[O-])cc1 (stereo not drawn) [Sulindac]
cross-reactivity of CBZ-reactive T cells to the compound (CBZ-reactive T cells): not

NC(=O)N1c2ccccc2CC(=O)c2ccccc21 [Oxcarbazepine, 5H-Dibenz[b,f]azepine-5-carboxamide, 10,11-dihydro-10-oxo]
cross-reactivity of CBZ-reactive T cells to the compound (CBZ-reactive T cells): cross-reactive
